# PubChem BioAssay AID588655 (The Scripps Research Institute Molecular Screening Center, 2011)
# Legend:
# [1] = target: Mitogen-activated protein kinase 1 (Homo sapiens) (UniProt P28482); experiment: altered phosphorylated MAPK1 amounts in cells – HT29 cells, chemiluminescent western blot, powder samples, counter-screen for KLF5 inhibitor project, late-stage follow-up (AID 588655); details: HT29 cells, phospho-ERK1/2 western blot, 24 h; at 10 µM; stronger effect = higher value
# [2] = system: HT29 cells, phospho-ERK1/2 western blot, 24 h; experiment: as above; details: measured here: phospho-ERK fold change vs DMSO; at 10 µM
# Sequence of Mitogen-activated protein kinase 1 (Homo sapiens) (P28482 whole entry, looked up): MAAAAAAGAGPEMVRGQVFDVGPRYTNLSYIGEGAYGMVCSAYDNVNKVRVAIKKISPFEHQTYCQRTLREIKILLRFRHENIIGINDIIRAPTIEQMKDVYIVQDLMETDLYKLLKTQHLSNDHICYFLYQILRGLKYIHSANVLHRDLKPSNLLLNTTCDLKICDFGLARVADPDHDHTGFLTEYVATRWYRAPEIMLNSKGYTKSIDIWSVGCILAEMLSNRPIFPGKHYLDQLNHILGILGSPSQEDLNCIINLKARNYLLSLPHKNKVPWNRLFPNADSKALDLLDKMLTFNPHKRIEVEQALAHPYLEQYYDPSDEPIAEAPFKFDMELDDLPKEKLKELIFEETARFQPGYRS
phospho-ERK1/2 band inhibition vs DMSO (stronger effect = higher value) [1],Compound,fold change [2]
34.3%,CN(C(=O)CNC(=O)/C=C/c1cccc(Cl)c1)C1CCS(=O)(=O)C1 (stereo unspecified),-1.52
38.6%,CN(C(=O)COC(=O)/C=C/c1cccc([N+](=O)[O-])c1)C1CCS(=O)(=O)C1 (stereo unspecified),-1.63
50.5%,CN(C(=O)CNC(=O)/C=C/c1cccc(Cl)c1)C1CCS(=O)(=O)CC1,-2.02
